Data as given in patent US8748626B2, “Oxazole and thiazole compounds as KSP inhibitors” (Novartis AG, priority 2010, dated 2014).

What was measured:
[1] = target: motor domain of human KSP (Eg 5, KNSL1) (Homo sapiens (Human), UniProt P52732); assay: Assay for determining KSP activity (microtubule-stimulated ATPase, Biomol Green); assay type: biochemical; settings: KSP motor domain 45 nM, microtubules 35 μg/mL, ATP, 1 hour RT, absorbance 630 nm; read-out: Biological Activity IC50
Description: This example provides a representative in vitro assay for determining KSP activity in vitro. Purified microtubules obtained from bovine brain were purchased from Cytoskeleton Inc. (Denver, Colo., USA). The motor domain of human KSP (Eg 5, KNSL1) was cloned, expressed, and purified to greater than 95% homogeneity. Biomol Green was purchased from Affinity Research Products Ltd. (Matford Court, Exeter, Devon, United Kingdom). Microtubules and KSP motor protein (i.e., the KSP motor domain) were diluted in assay buffer (20 mM Tris-HCl (pH 7.5), 1 mM MgCl2, 10 mM DTT and 0.25 mg/mL BSA) to a final concentration of 35 μg/mL microtubules and 45 nM KSP. The microtubule/KSP mixture was then pre-incubated at 37° C. for 10 min to promote the binding of KSP to microtubules.
To each well of the testing plate (384-well plate) containing 1.25 μL of inhibitor or test compound in DMSO (or DMSO only in the case of controls) were added 25 μL of ATP solution (ATP diluted to a concentration of 300 μM in assay buffer) and 25 μL of the above-described microtubule/KSP solution. The plates were incubated at RT for 1 hour. Following incubation, 65 μL of Biomol Green (a malachite green-based dye that detects the release of inorganic phosphate) was added to each well. The plates were incubated for an additional 5-10 minutes then the absorbance at 630 nm was determined using a Victor II plate reader. The amount of absorbance at 630 nm corresponded to the amount of KSP activity in the samples. The IC50 of each inhibitor or test compound was then determined based on the decrease in absorbance at 630 nm at each concentration, via nonlinear regression using either XLFit for Excel or Prism data analysis software by GraphPad Software Inc.

tumor cell lines = assay: Inhibition of cellular proliferation in tumor cell lines (CellTiter-Glo); assay type: cell-based; settings: 50% growth inhibition at 72 hours of continuous compound exposure; cell line not specified; read-out: Biological Activity GI50
Description: Cells are plated in 96-well plates at densities of about 500 cells per well of a 96-well plate and are allowed to grow for 24 hours. The cells are then treated with various concentrations of compounds for 72 hours. Then, 100 μl of CellTiter-Glo® solution are added. The CellTiter-Glo® assay measures the amount of ATP present in the well after lysing the cells; the ATP released is used in an enzymatic reaction including the enzyme Luciferease and its substrate Luciferin. The amount of light emitted is proportional to the amount of ATP, which in turn is proportional to the number of live cells in the well. (see Promega product catalog #G7573, CellTiter-Glo® Luminescent Cell Viability Assay). The cells are then incubated in the dark for 30 minutes. The amount of luminescence is determined for each well using a Wallac Trilux plate reader, which correlates with the number of cells per well. The number of viable cells in the wells that receive only DMSO (0.5%) serve as an indication of 0°/a inhibition, while wells without cells serve as 100% inhibition of cell growth. The compound concentration that results in a 50% growth inhibition (GI50) is determined graphically from sigmoidal dose-response curves of log-transformed dose values versus cell counts (percent of control) at 72 hours of continuous compound exposure.
The cell lines used are listed below.
The cell proliferation assay is performed as described above. • Cancer Cell Lines • Colo 205—colon carcinoma • RPMI 1640+10% FBS+1% L-glutamine+1% P/S+1% NaPyr.+Hepes+4.5 g/L Glucose+1% NaBicarb. • MDA 435—breast cancer—high met • EMEM+10% FBS+1% P/S+1% L-Glutamine+1% NEAA+1% NaPyr+1% vitamins • HCT-15 and HCT116—colon carcinoma • RPMI 1640+10% FBS+1% L-glutamine+1% P/S • Drug Resistant Cell Lines • KB3.1—[…] epidermal carcinoma; parental cell line • Iscove's+10% FBS+1% L-glutamine+1% P/S • KBV1—p-glycoprotein associated multi-drug resistant cell line • RPMI 1640+10% FBS+1% L-glutamine+1% P/S+0.2 ug/mL Vinblastine • KB85—p-glycoprotein associated multi-drug resistant cell line • DMEM+10% FBS+1% L-glutamine+1% P/S+10 ng/mL Colchicine

Sequence of motor domain of human KSP (Eg 5, KNSL1) (P52732 18-359): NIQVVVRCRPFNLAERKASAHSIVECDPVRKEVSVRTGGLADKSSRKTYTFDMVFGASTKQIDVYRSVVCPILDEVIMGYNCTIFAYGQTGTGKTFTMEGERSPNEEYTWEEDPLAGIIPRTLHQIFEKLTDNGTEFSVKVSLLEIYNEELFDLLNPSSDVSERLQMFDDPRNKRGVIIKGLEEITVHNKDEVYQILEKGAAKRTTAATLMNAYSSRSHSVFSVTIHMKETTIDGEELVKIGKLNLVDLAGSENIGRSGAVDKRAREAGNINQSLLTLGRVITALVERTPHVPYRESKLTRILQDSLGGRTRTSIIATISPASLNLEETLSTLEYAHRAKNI

Structure (SMILES) | IC50 [1] [nM] | GI50 (tumor cell lines) [nM]
C[C@H](O)C(=O)N(C[C@@H]1CNC[C@@H]1F)[C@@H](c1nc(-c2cc(F)ccc2F)oc1Cc1ccccc1)C(C)(C)C [Example 4, (S)-N-((R)-1-(5-benzyl-2-(2,5-difluorophenyl)oxazol-4-yl)-2,2-dimethylpropyl)-N-(((3S,4R)-4-fluoropyrrolidin-3-yl)methyl)-2-hydroxypropanamide] | 7.18 | 3.5
CC(C)(C)[C@H](c1nc(-c2cc(F)ccc2F)sc1Cc1ccccc1)N(C[C@@H]1CNC[C@@H]1F)C(=O)[C@@H]1CCCO1 [Example 2, (S)-N-((R)-1-(5-benzyl-2-(2,5-difluorophenyl)thiazol-4-yl)-2,2-dimethylpropyl)-N-(((3S,4R)-4-fluoropyrrolidin-3-yl)methyl)tetrahydrofuran-2-carboxamide] | 10 | 1.4
C[C@H](O)C(=O)N(C[C@@H]1CNC[C@@H]1F)[C@H](c1nc(-c2cc(F)ccc2F)oc1Cc1ccccc1)C(C)(C)C [Example 6, (S)-N-((S)-1-(5-benzyl-2-(2,5-difluorophenyl)oxazol-4-yl)-2,2-dimethylpropyl)-N-(((3S,4R)-4-fluoropyrrolidin-3-yl)methyl)-2-hydroxypropanamide] | 1000 | –

Other lines, results leading:

IC50 [1] [nM] | GI50 (tumor cell lines) [nM] | Structure (SMILES)
2.54 | 4.82 | C[C@H](O)C(=O)N(CC[C@H](N)CF)[C@@H](c1nc(-c2cc(F)ccc2F)oc1Cc1ccccc1)C(C)(C)C [Example 5, (S)-N-((S)-3-amino-4-fluorobutyl)-N-((R)-1-(5-benzyl-2-(2,5-difluorophenyl)oxazol-4-yl)-2,2-dimethylpropyl)-2-hydroxypropanamide]
631 | – | C[C@H](O)C(=O)N(CC[C@H](N)CF)[C@H](c1nc(-c2cc(F)ccc2F)oc1Cc1ccccc1)C(C)(C)C [Example 7, (S)-N-((S)-3-amino-4-fluorobutyl)-N-((S)-1-(5-benzyl-2-(2,5-difluorophenyl)oxazol-4-yl)-2,2-dimethylpropyl)-2-hydroxypropanamide]
2.6 | 2.2 | C[C@H](O)C(=O)N(CC[C@H](N)CF)[C@@H](c1nc(-c2cc(F)ccc2F)sc1Cc1ccccc1)C(C)(C)C [Example 3, (S)-N-((S)-3-amino-4-fluorobutyl)-N-((R)-1-(5-benzyl-2-(2,5-difluorophenyl)thiazol-4-yl)-2,2-dimethylpropyl)-2-hydroxypropanamide]
0.84 | 0.18 | C[C@H](O)C(=O)N(C[C@@H]1CNC[C@@H]1F)[C@@H](c1nc(-c2cc(F)ccc2F)sc1Cc1ccccc1)C(C)(C)C [Example 1, (S)-N-((R)-1-(5-benzyl-2-(2,5-difluorophenyl)thiazol-4-yl)-2,2-dimethylpropyl)-N-(((3S,4R)-4-fluoropyrrolidin-3-yl)methyl)-2-hydroxypropanamide]
– | 944 | C[C@H](O)C(=O)N(CC[C@H](N)CF)[C@H](c1nc(-c2cc(F)ccc2F)sc1Cc1ccccc1)C(C)(C)C [Example 8, (S)-N-((S)-3-amino-4-fluorobutyl)-N-((S)-1-(5-benzyl-2-(2,5-difluorophenyl)thiazol-4-yl)-2,2-dimethylpropyl)-2-hydroxypropanamide]
